We go through one compound from article PMC6704710, “Preclinical evaluation of 3D185, a novel potent inhibitor of FGFR1/2/3 and CSF-1R, in FGFR-dependent and macrophage-dominant cancer models” (Journal of Experimental & Clinical Cancer Research : CR, 2019).

Holding throughout (assay): Eurofins kinase panel
Common to all, as to type: biochemical
Common to all, as to details: read-out: Inhibition rate (%)

One test concerns the target T1, Axl(h) (Homo sapiens, UniProt P30530).
T1 construct: purchased Eurofins (KinaseProfiler)
T1 sequence (P30530 26-894): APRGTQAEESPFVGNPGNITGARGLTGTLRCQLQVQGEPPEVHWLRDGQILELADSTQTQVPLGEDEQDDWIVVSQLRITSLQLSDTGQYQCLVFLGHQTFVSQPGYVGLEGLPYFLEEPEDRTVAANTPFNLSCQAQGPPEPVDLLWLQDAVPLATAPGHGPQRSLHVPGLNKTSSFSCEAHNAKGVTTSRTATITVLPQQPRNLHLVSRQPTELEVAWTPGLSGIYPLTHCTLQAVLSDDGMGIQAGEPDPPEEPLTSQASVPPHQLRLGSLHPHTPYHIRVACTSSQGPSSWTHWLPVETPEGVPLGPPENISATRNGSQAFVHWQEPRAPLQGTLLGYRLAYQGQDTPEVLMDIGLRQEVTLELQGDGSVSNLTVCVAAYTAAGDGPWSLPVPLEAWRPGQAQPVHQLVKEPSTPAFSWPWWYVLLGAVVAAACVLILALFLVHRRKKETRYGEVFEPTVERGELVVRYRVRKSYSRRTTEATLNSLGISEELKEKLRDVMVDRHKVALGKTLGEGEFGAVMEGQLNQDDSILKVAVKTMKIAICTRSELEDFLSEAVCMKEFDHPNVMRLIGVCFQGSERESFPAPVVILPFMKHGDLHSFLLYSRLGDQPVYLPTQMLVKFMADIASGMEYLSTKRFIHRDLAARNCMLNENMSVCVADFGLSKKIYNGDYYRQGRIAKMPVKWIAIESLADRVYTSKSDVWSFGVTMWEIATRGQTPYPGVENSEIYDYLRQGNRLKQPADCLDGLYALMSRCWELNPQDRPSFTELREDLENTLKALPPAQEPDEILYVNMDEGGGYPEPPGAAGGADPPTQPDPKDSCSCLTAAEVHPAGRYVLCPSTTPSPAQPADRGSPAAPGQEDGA

The target of the next test is T2, FGFR4(h) (Homo sapiens, UniProt P22455).
T2 construct: purchased Eurofins (KinaseProfiler)
T2 sequence (P22455 22-802): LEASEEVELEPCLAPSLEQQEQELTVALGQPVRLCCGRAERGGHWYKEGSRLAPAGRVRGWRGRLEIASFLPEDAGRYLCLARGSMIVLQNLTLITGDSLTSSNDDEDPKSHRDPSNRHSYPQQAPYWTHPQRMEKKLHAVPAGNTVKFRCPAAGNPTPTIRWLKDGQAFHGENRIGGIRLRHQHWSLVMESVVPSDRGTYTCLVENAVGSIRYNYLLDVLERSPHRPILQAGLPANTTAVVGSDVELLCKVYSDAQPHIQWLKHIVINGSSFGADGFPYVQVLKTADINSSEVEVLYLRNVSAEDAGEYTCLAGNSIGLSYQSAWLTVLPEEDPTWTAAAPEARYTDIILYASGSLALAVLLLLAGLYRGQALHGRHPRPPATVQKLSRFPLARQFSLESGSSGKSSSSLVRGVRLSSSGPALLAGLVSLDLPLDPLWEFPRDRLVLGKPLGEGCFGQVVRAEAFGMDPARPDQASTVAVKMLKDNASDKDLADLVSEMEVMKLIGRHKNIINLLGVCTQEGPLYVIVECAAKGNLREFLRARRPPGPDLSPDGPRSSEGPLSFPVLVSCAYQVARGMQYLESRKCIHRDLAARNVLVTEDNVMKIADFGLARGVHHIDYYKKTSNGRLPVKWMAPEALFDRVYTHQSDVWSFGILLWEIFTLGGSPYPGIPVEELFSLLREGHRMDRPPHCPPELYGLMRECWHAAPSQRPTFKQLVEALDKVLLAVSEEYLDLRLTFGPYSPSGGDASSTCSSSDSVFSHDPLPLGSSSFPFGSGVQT

A further test addresses T3, Syk(h) (Homo sapiens, UniProt P43405).
T3 construct: purchased Eurofins (KinaseProfiler)

For the next test, the target named is T4, CK1γ3(h) (Homo sapiens, UniProt Q9Y6M4).
T4 construct: purchased Eurofins (KinaseProfiler)
T4 sequence (Q9Y6M4 whole entry): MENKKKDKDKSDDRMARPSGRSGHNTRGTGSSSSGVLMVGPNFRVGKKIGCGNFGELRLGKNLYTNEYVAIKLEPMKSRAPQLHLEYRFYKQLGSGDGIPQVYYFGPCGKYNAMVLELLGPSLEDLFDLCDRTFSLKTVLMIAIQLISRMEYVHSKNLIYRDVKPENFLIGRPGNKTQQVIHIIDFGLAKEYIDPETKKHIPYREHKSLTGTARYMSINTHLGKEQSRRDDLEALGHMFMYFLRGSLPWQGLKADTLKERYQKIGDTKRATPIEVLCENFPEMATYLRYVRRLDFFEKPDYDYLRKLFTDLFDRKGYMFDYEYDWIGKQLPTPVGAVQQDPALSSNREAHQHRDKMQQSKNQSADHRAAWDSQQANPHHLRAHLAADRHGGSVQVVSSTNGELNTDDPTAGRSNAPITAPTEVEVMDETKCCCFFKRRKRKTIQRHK

The target in another test is T5, PKCε(h) (Homo sapiens, UniProt Q02156).
T5 construct: purchased Eurofins (KinaseProfiler)
T5 sequence (Q02156 1-737): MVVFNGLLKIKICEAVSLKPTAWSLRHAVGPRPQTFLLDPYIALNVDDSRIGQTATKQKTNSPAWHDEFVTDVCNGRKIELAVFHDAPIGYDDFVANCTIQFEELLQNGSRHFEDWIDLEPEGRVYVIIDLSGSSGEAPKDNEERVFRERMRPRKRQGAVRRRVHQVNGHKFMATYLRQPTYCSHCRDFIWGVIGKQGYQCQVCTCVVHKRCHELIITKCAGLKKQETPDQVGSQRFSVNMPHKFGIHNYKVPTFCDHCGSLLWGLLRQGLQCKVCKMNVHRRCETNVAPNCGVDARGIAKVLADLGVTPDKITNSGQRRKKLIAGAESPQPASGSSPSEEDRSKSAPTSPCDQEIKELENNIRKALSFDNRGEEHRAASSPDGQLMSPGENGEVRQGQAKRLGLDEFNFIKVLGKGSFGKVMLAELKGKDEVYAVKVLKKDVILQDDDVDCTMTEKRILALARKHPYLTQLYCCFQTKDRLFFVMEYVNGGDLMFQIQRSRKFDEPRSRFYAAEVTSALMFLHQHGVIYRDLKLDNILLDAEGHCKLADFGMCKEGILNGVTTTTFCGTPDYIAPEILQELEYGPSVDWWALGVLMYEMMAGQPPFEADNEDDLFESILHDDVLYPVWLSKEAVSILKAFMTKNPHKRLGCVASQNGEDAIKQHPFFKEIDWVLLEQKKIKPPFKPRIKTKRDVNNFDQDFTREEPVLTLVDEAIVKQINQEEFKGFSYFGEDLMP

A further test addresses T6, Wee1B(h) (Homo sapiens, UniProt P0C1S8).
T6 construct: purchased Eurofins (KinaseProfiler)

The target of the next test is T7, Arg(h) (Homo sapiens, UniProt P42684).
T7 construct: purchased Eurofins (KinaseProfiler)
T7 sequence (P42684 whole entry): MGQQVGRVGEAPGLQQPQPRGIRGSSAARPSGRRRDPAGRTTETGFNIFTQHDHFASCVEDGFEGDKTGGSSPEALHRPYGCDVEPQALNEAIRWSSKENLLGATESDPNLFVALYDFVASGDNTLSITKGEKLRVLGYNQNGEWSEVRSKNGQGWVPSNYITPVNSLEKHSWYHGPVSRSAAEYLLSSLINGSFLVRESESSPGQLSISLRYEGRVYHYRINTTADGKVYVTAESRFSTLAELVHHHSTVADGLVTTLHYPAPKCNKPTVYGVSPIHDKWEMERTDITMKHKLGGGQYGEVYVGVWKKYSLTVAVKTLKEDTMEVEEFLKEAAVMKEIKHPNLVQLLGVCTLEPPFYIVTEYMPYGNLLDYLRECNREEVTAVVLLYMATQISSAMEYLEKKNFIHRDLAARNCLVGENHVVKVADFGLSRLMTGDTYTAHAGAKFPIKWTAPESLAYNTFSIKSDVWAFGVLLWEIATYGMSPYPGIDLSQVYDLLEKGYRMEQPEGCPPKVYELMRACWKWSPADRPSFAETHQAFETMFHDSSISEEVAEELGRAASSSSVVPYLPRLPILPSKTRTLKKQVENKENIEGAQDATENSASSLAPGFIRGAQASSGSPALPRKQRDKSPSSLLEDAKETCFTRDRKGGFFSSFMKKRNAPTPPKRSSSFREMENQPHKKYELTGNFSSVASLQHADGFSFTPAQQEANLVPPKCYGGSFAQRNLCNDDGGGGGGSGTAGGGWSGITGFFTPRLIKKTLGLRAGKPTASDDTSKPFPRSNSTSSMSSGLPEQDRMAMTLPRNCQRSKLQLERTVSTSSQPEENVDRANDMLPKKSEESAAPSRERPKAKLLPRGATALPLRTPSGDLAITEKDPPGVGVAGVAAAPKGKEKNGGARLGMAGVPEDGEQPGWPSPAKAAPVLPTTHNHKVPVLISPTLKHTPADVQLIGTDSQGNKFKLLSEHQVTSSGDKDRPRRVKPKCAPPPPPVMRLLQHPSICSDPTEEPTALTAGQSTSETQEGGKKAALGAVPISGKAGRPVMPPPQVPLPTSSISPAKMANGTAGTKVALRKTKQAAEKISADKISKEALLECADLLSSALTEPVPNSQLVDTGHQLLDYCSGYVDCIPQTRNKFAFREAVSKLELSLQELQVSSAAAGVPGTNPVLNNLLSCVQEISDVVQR

T6 sequence (P0C1S8 whole entry): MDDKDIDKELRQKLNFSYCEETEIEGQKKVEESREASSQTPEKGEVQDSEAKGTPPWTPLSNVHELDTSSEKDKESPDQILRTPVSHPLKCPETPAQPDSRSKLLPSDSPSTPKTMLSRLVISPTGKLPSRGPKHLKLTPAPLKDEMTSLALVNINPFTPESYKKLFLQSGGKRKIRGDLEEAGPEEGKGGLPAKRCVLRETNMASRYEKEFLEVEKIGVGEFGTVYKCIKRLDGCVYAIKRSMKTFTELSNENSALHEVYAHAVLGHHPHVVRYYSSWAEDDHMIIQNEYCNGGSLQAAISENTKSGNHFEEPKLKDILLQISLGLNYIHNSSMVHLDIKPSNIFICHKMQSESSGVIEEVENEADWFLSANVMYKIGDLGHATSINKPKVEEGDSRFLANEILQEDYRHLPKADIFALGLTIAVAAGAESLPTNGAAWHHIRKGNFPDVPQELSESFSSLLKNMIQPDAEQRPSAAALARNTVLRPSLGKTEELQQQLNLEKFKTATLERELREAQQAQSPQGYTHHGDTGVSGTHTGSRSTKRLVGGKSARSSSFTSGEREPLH

As to `COc1cc(OC)c(Cl)c(-c2ccc3c(NC(=O)c4ccc(N5CCNC(C)(C)C5)cc4)n[nH]c3n2)c1Cl` [3D185], the inhibition at 0.01 µM on Axl(h) (10 nM) is -7%; on FGFR4(h) (10 nM), 43%; at Syk(h) (10 nM) it was -3%; at CK1γ3(h) (10 nM) it was 1%; at PKCε(h) (10 nM), -4%; at Wee1B(h) (10 nM), 9%. The inhibition at 0.01 µM at Arg(h) (10 nM) turned out to be 2%. The inhibition at 0.1 µM at Axl(h) (100 nM) was -9%; on FGFR4(h) (100 nM), 91%; on Syk(h) (100 nM), -5%; at CK1γ3(h) (100 nM), -10%; at PKCε(h) (100 nM), -10%; on Wee1B(h) (100 nM), -2%. For the same compound, the inhibition at 0.1 µM on Arg(h) (100 nM) amounted to 36%. Moreover, the inhibition at 1 µM at Axl(h) (1000 nM) is 26%; on FGFR4(h) (1000 nM) it was 100%; on Syk(h) (1000 nM), 20%; on CK1γ3(h) (1000 nM) it was 12%; on PKCε(h) (1000 nM), -6%; on Wee1B(h) (1000 nM), 9%. Further, at Arg(h) (1000 nM), the inhibition at 1 µM amounted to 87%.
